Measurements published in PubChem BioAssay AID2060896 (Molecular Pharmacology Branch, DTP, NCI, 2025).

Tested on: 941728-121-R-J1-PDC complex spheroid viability
Experiment: Anticancer human tumor 941728-121-R-J1-PDC patient-derived lung adenocarcinoma cell line growth inhibition [RAS]
Conditions: for IC50: curve of first compound; for viability, T/C: stronger effect = lower value
Outline: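 Tumour cells grown as complex spheroids with HUVEC endothelial cells and mesenchymal stem cells, treated with RAS pathway inhibitor combinations. Each agent spans half-log steps from near clinical Cmax, or 10 microM where Cmax is unknown.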

[1] = second compound 0.000949 µM, first compound 0.0316 µM
[2] = second compound 0.000949 µM, first compound 0.1 µM
[3] = second compound 0.000949 µM, first compound 0.316 µM
[4] = second compound 0.000949 µM, first compound 1 µM
[5] = second compound 0.000949 µM, first compound 3.16 µM
[6] = second compound 0.000949 µM, first compound 10 µM
[7] = second compound 0.003 µM, first compound 0.0316 µM
[8] = second compound 0.003 µM, first compound 0.1 µM
[9] = second compound 0.003 µM, first compound 0.316 µM
[10] = second compound 0.003 µM, first compound 1 µM
[11] = second compound 0.003 µM, first compound 3.16 µM
[12] = second compound 0.003 µM, first compound 10 µM
[13] = second compound 0.00949 µM, first compound 0.0316 µM
[14] = second compound 0.00949 µM, first compound 0.1 µM
[15] = second compound 0.00949 µM, first compound 0.316 µM
[16] = second compound 0.00949 µM, first compound 1 µM
[17] = second compound 0.00949 µM, first compound 3.16 µM
[18] = second compound 0.00949 µM, first compound 10 µM
[19] = second compound 0.03 µM, first compound 0.0316 µM
[20] = second compound 0.03 µM, first compound 0.1 µM
[21] = second compound 0.03 µM, first compound 0.316 µM
[22] = second compound 0.03 µM, first compound 1 µM
[23] = second compound 0.03 µM, first compound 3.16 µM
[24] = second compound 0.03 µM, first compound 10 µM
[25] = second compound 0.0949 µM, first compound 0.0316 µM
[26] = second compound 0.0949 µM, first compound 0.1 µM
[27] = second compound 0.0949 µM, first compound 0.316 µM
[28] = second compound 0.0949 µM, first compound 1 µM
[29] = second compound 0.0949 µM, first compound 3.16 µM
[30] = second compound 0.0949 µM, first compound 10 µM
[31] = second compound 0.3 µM, first compound 0.0316 µM
[32] = second compound 0.3 µM, first compound 0.1 µM
[33] = second compound 0.3 µM, first compound 0.316 µM
[34] = second compound 0.3 µM, first compound 1 µM
[35] = second compound 0.3 µM, first compound 3.16 µM
[36] = second compound 0.3 µM, first compound 10 µM
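Further: spheroids exposed to compounds for 7 days before readout.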
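Wherever viability, T/C is given: 100% = DMSO vehicle control viability.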

CC(=O)OC12COC1CC(O)C1(C)C(=O)C(O)C3=C(C)C(OC(=O)C(O)C(NC(=O)OC(C)(C)C)c4ccccc4)CC(O)(C(OC(=O)c4ccccc4)C21)C3(C)C (centres undefined) + CCn1c(-c2cc(N3CCN(C)CC3)cnc2C(C)OC)c2c3cc(ccc31)-c1csc(n1)CC(NC(=O)C1CC1C)C(=O)N1CCCC(N1)C(=O)OCC(C)(C)C2
IC50 (second compound 0.000949 µM): < 31.6 nM | IC50 (second compound 0.003 µM): < 31.6 nM | IC50 (second compound 0.00949 µM): < 31.6 nM | IC50 (second compound 0.03 µM): < 31.6 nM | IC50 (second compound 0.0949 µM): < 31.6 nM | IC50 (second compound 0.3 µM): < 31.6 nM | viability, T/C [1]: 21.7% | viability, T/C [2]: 21.4% | viability, T/C [3]: 16.5% | viability, T/C [4]: 19.6% | viability, T/C [5]: 21.3% | viability, T/C [6]: 16.5% | viability, T/C [7]: 15.3% | viability, T/C [8]: 16.9% | viability, T/C [9]: 12.5% | viability, T/C [10]: 13.8% | viability, T/C [11]: 13.4% | viability, T/C [12]: 11.2% | viability, T/C [13]: 13.5% | viability, T/C [14]: 9.99% | viability, T/C [15]: 11.2% | viability, T/C [16]: 9.23% | viability, T/C [17]: 10.8% | viability, T/C [18]: 10.2% | viability, T/C [19]: 10.2% | viability, T/C [20]: 9.9% | viability, T/C [21]: 9.46% | viability, T/C [22]: 9.75% | viability, T/C [23]: 7.17% | viability, T/C [24]: 11.4% | viability, T/C [25]: 10.4% | viability, T/C [26]: 11% | viability, T/C [27]: 9.54% | viability, T/C [28]: 8.5% | viability, T/C [29]: 8.8% | viability, T/C [30]: 9.11% | viability, T/C [31]: 9.41% | viability, T/C [32]: 9.25% | viability, T/C [33]: 8.94% | viability, T/C [34]: 9.02% | viability, T/C [35]: 7.68% | viability, T/C [36]: 9.8%

CCC(CC)c1cc(NC2CCC(N)C2)n2nccc2n1 (centres undefined) + CCn1c(-c2cc(N3CCN(C)CC3)cnc2C(C)OC)c2c3cc(ccc31)-c1csc(n1)CC(NC(=O)C1CC1C)C(=O)N1CCCC(N1)C(=O)OCC(C)(C)C2
IC50 (second compound 0.000949 µM): < 31.6 nM | IC50 (second compound 0.003 µM): < 31.6 nM | IC50 (second compound 0.00949 µM): < 31.6 nM | IC50 (second compound 0.03 µM): < 31.6 nM | IC50 (second compound 0.0949 µM): < 31.6 nM | IC50 (second compound 0.3 µM): < 31.6 nM | viability, T/C [1]: 29.4% | viability, T/C [2]: 28.1% | viability, T/C [3]: 27.6% | viability, T/C [4]: 32.5% | viability, T/C [5]: 15% | viability, T/C [6]: 41.4% | viability, T/C [7]: 23.7% | viability, T/C [8]: 21.6% | viability, T/C [9]: 20.7% | viability, T/C [10]: 26.8% | viability, T/C [11]: 12.4% | viability, T/C [12]: 39.3% | viability, T/C [13]: 18% | viability, T/C [14]: 16.2% | viability, T/C [15]: 20.5% | viability, T/C [16]: 24.7% | viability, T/C [17]: 14.5% | viability, T/C [18]: 41.5% | viability, T/C [19]: 14.8% | viability, T/C [20]: 15.4% | viability, T/C [21]: 19% | viability, T/C [22]: 21.2% | viability, T/C [23]: 19.3% | viability, T/C [24]: 51% | viability, T/C [25]: 14.2% | viability, T/C [26]: 15% | viability, T/C [27]: 16.5% | viability, T/C [28]: 21.4% | viability, T/C [29]: 18.7% | viability, T/C [30]: 50.8% | viability, T/C [31]: 13.3% | viability, T/C [32]: 15.2% | viability, T/C [33]: 17.8% | viability, T/C [34]: 20% | viability, T/C [35]: 13.1% | viability, T/C [36]: 49.1%
